Measurements as given in ChEMBL document CHEMBL5053492, “Discovery of tert-amine-based RORγt agonists” (Eur J Med Chem, 2021).

Biological target: T1, Nuclear receptor ROR-gamma (Homo sapiens, UniProt P51449)
T1 sequence (P51449 whole entry): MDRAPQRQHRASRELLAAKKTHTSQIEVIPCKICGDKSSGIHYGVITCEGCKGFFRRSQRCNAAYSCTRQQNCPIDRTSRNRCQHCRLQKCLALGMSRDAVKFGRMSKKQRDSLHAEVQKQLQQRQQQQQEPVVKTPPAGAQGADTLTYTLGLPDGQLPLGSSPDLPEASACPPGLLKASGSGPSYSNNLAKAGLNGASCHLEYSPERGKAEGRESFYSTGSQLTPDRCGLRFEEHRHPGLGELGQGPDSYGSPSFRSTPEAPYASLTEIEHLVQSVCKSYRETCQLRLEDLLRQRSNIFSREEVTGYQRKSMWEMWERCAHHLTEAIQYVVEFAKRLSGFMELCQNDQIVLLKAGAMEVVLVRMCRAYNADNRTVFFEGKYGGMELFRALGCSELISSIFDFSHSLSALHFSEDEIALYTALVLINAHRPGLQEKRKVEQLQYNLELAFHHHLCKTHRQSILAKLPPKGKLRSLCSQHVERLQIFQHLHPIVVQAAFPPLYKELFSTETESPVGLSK
Experiment: Agonist activity at human RORgammat LBD expressed in HEK293T cells assessed as increase in Gal4 reporter gene transcription measured after 16 to 20 hrs by luciferase reporter gene assay
Format: cell-based
Settings: not given

Row | SMILES | EC50 [nM]
1 | CCCN(Cc1ccc(NC(=O)Cc2ccc(S(C)(=O)=O)cc2)cc1)CC1CCCCC1 | 277
2 | CCCN(Cc1ccc(NC(=O)Cc2ccc(S(C)(=O)=O)cc2)cc1Cl)CC1CCCCC1 | 283
3 | CCCN(Cc1c(Cl)cc(NC(=O)Cc2ccc(S(C)(=O)=O)cc2)cc1Cl)CC1CCCCC1 | 382

Biological target: T1, Nuclear receptor ROR-gamma
Experiment: Agonist activity at APC-labeled RORgammat LBD (unknown origin) incubated for 1 hr in presence of europium labeled co-activator SRC1 by dual FRET assay
Settings: not given

Row | SMILES | EC50 [nM]
4 | CCCN(Cc1ccc(NC(=O)Cc2ccc(S(=O)(=O)CC)cc2)cc1)CC1CC1 | 6530
5 | CCCN(Cc1ccccc1)Cc1ccc(NC(=O)Cc2ccc(S(C)(=O)=O)cc2)cc1 | 43.1
6 | CCCN(Cc1ccc(NC(=O)Cc2ccc(S(=O)(=O)CC)cc2)cc1)CC1CCC(F)(F)CC1 | 79.6
7 | CCCN(CCc1ccccc1)c1ccc(NC(=O)Cc2ccc(S(=O)(=O)CC)cc2)cc1 | 11.6
8 | CCS(=O)(=O)c1ccc(CC(=O)Nc2ccc(CNCc3ccccc3)cc2)cc1 | > 30000
9 | CCCN(Cc1ccc(NC(=O)Cc2ccc(S(=O)(=O)CC)cc2)cc1)Cc1cccnc1 | 40.2
10 | CCCN(Cc1ccc(NC(=O)Cc2ccc(S(=O)(=O)CC)cc2)cc1)Cc1ccccc1Cl | 16.9
11 | CCCN(Cc1ccc(NC(=O)Cc2ccc(S(=O)(=O)CC)cc2)cc1)Cc1nccs1 | > 30000
12 | CCCN(Cc1ccccc1)Cc1ccc(NC(=O)Cc2ccc(S(=O)(=O)CC)cc2)cc1Cl | 8.7
13 | CCCN(Cc1ccccc1)Cc1c(Cl)cc(NC(=O)Cc2ccc(S(=O)(=O)CC)cc2)cc1Cl | 8.2
14 | CCS(=O)(=O)c1ccc(CC(=O)Nc2ccc(NCCc3ccccc3)cc2)cc1 | 55.2
15 | CCCN(Cc1ccc(NC(=O)Cc2ccc(S(=O)(=O)CC)cc2)cc1)CC1CCCC1 | 109
16 | CCS(=O)(=O)c1ccc(CC(=O)Nc2ccc(CN(Cc3ccccc3)CC3CCC3)cc2)cc1 | 7.1
17 | CCCN(Cc1ccccc1)Cc1ccc(C(=O)NCc2ccc(S(=O)(=O)CC)cc2)cc1 | 9.2
18 | CCCN(Cc1ccc(NC(=O)Cc2ccc(S(=O)(=O)CC)cc2)cc1)Cc1ccccc1F | 9.4
19 | CCCN(Cc1ccccc1)Cc1ccc(NCCc2ccc(S(=O)(=O)CC)cc2)cc1 | 33.6
20 | CCCN(Cc1ccc(NC(=O)Cc2ccc(S(=O)(=O)CC)cc2)cc1)Cc1cccs1 | 29.1
21 | CCCN(Cc1ccc(NC(=O)Cc2ccc(S(=O)(=O)CC)cc2)cc1)CC1CCOCC1 | 86.2
22 | CCN(Cc1ccccc1)Cc1ccc(NC(=O)Cc2ccc(S(=O)(=O)CC)cc2)cc1 | 36.3
23 | CCS(=O)(=O)c1ccc(CC(=O)Nc2ccc(CN(Cc3ccccc3)CC3CC3)c(Cl)c2)cc1 | 8

Results, then the compound that gave them:

Row | EC50 [nM] | SMILES
24 | 58 | CCCN(Cc1ccccc1)Cc1ccc(NC(=O)NCc2ccc(S(=O)(=O)CC)cc2)cc1
25 | 14 | CCS(=O)(=O)c1ccc(CC(=O)Nc2ccc(CN(Cc3ccccc3)CC3CC3)cc2)cc1
26 | 2170 | CCCN(Cc1ccccc1)Cc1ccc(NC(=O)Cc2ccccc2)cc1
27 | > 30000 | CCCN(Cc1ccccc1)Cc1ccc(NC(=O)Cc2ccc(C(=O)O)cc2)cc1
28 | 291 | CCCN(Cc1ccc(NC(=O)Cc2ccc(S(=O)(=O)CC)cc2)cc1)CC1CCC1
29 | 11.6 | CCCN(Cc1ccc(NC(=O)Cc2ccc(S(=O)(=O)CC)cc2)cc1)Cc1ccccc1C
30 | 101 | CCS(=O)(=O)c1ccc(CC(=O)Nc2ccc(CN(C)Cc3ccccc3)cc2)cc1
31 | 16.8 | CCCN(Cc1ccc(Cl)cc1)Cc1ccc(NC(=O)Cc2ccc(S(=O)(=O)CC)cc2)cc1
32 | 11.1 | CCCCN(Cc1ccccc1)Cc1ccc(NC(=O)Cc2ccc(S(=O)(=O)CC)cc2)cc1
33 | 7100 | CCCN(Cc1ccccc1)Cc1ccc(NC(=O)Cc2ccc(S(=O)(=O)CC)cn2)cc1
34 | 346 | CCCN(Cc1ccccc1)Cc1ccc(NC(=O)Cc2ccc(C#N)cc2)cc1
35 | 285 | CCCN(Cc1ccc(NC(=O)Cc2ccc(S(=O)(=O)CC)cc2)cc1)CC1CCCO1 (stereo unspecified)

Biological target: T2, Nuclear receptor ROR-gamma (Mus musculus) (UniProt P51450)
T2 sequence (whole entry): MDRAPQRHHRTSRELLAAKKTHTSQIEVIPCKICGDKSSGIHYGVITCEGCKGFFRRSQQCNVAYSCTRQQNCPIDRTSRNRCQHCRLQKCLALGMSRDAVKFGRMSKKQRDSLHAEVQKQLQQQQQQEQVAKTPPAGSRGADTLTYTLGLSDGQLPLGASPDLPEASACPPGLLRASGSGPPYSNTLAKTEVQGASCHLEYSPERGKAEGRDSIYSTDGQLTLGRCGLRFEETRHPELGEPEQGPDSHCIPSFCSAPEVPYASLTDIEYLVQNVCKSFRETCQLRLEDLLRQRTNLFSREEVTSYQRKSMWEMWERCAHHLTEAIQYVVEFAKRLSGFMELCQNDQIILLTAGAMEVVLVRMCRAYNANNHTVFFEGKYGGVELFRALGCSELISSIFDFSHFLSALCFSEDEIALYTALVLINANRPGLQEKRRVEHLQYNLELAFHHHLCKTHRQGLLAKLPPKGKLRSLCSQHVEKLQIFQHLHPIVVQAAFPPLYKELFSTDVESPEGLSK
Experiment: Agonist activity at RORgammat in mouse CD4+ T cells assessed as induction of Th17 cells differentiation by measuring increase in IL17 production at 250 nM measured after 4 days by intracellular staining based flow cytometry (reference value: 16.5 %)
Format: cell-based
Settings: CD4+ve Th, time 4.0 day

Row | SMILES | Activity [%]
36 | CCCN(Cc1ccc(NC(=O)Cc2ccc(S(C)(=O)=O)cc2)cc1Cl)CC1CCCCC1 | 21.9
